Among the data in PubChem BioAssay AID2060613 (Molecular Pharmacology Branch, DTP, NCI, 2025) are IC50 and viability, T/C values, retold here.

By IC50 is commonly meant the concentration that inhibits the measured activity by half. The viability, T/C is the ratio of treated to control.

Values joined by “and” are separate entries in the source; they are usually repeats but may differ in a detail not shown here. Equal entries are not always repeated.

The subject of the test is 233499-124-R-J3-PDC complex spheroid viability. The test can be described thus: Anticancer human tumor 233499-124-R-J3-PDC patient-derived colon adenocarcinoma cell line growth inhibition [CLK]. To be noted: for viability, T/C: stronger effect = lower value. A digest of the protocol: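 Patient-derived tumor cells grown as complex spheroids with HUVEC endothelial cells and mesenchymal stem cells, treated with drug combinations. Concentrations descend in half-log steps from near clinical Cmax, or from 10 microM if Cmax unknown.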

[1] abbreviates: curve of first compound, second compound 0.0316 µM.
Where [2] appears, read: curve of first compound, second compound 0.1 µM.
Where [3] appears, read: curve of first compound, second compound 0.316 µM.
[4] abbreviates: curve of first compound, second compound 1 µM.
Setting [5] is: curve of first compound, second compound 3.16 µM.
The mark [6] stands for this setting: curve of first compound, second compound 10 µM.
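Further: spheroids exposed to the drug combinations for seven days.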
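Wherever viability, T/C is given: percent viability relative to DMSO vehicle control wells taken as 100%.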

On to `Nc1ccn(C2OC(CO)C(O)C2(F)F)c(=O)n1` (centres undefined) + CNC(=O)c1ccc(Nc2nc(OC3CCCC3)c3c(-c4ccc5nc(C)oc5c4)c[nH]c3n2)c(OC)c1, for which the IC50 is, setting by setting: under setting [1], 71.3 nM; under setting [2], 125 nM; under setting [3], 121 nM; under setting [4], 42.4 nM; under setting [5], 39.9 nM; under setting [6], 44.1 nM. Also, the viability, T/C is, setting by setting: (second compound 0.0316 µM, first compound 0.0316 µM) 80.5%; (second compound 0.0316 µM, first compound 0.1 µM) 37.3%; (second compound 0.0316 µM, first compound 0.316 µM) 11.7%; (second compound 0.0316 µM, first compound 1 µM) 13.9%; (second compound 0.0316 µM, first compound 3.16 µM) 22.5%; (second compound 0.0316 µM, first compound 10 µM) 13.7%. The viability, T/C was 56.8% (second compound 0.1 µM, first compound 0.0316 µM); 57.8% (second compound 0.1 µM, first compound 0.1 µM); 18.3% (second compound 0.1 µM, first compound 0.316 µM); 22% (second compound 0.1 µM, first compound 1 µM); 18.2% (second compound 0.1 µM, first compound 3.16 µM); 18.3% (second compound 0.1 µM, first compound 10 µM). For the same compound, the viability, T/C reads like this: (second compound 0.316 µM, first compound 0.0316 µM) 65.2%; (second compound 0.316 µM, first compound 0.1 µM) 56.8%; (second compound 0.316 µM, first compound 0.316 µM) 15.7%; (second compound 0.316 µM, first compound 1 µM) 8.6%; (second compound 0.316 µM, first compound 3.16 µM) 14.8%; (second compound 0.316 µM, first compound 10 µM) 14.3%. The viability, T/C (second compound 1 µM, first compound 0.0316 µM) was 63%; the viability, T/C (second compound 1 µM, first compound 0.1 µM) was 12%; the viability, T/C (second compound 1 µM, first compound 0.316 µM) is 13.7%; the viability, T/C (second compound 1 µM, first compound 1 µM) was 9.36%; the viability, T/C (second compound 1 µM, first compound 3.16 µM) is 10.2%; the viability, T/C (second compound 1 µM, first compound 10 µM) was 8.84%. Moreover, the viability, T/C runs as follows: (second compound 3.16 µM, first compound 0.0316 µM) 53.5%; (second compound 3.16 µM, first compound 0.1 µM) 36%; (second compound 3.16 µM, first compound 0.316 µM) 11.4%; (second compound 3.16 µM, first compound 1 µM) 5.38%; (second compound 3.16 µM, first compound 3.16 µM) 6.79%; (second compound 3.16 µM, first compound 10 µM) 5.11%. Moreover, the viability, T/C (second compound 10 µM, first compound 0.0316 µM) is 53.4%; the viability, T/C (second compound 10 µM, first compound 0.1 µM) is 41.7%; the viability, T/C (second compound 10 µM, first compound 0.316 µM) was 11.5%; the viability, T/C (second compound 10 µM, first compound 1 µM) is 6.13%; the viability, T/C (second compound 10 µM, first compound 3.16 µM) was 5.83%; the viability, T/C (second compound 10 µM, first compound 10 µM) was 4.84%.
In the case of `Nc1ccn(C2OC(CO)C(O)C2(F)F)c(=O)n1` (centres undefined), the viability, T/C runs as follows: (compound 0.0316 µM) 100% and 98%; (compound 0.1 µM) 80.3% and 47.1%; (compound 0.316 µM) 39.9% and 22.4%; (compound 1 µM) 33.8% and 20.9%; (compound 3.16 µM) 38.9% and 21.9%; (compound 10 µM) 41.3% and 15.8%. Where the note is “curve of compound”, the IC50 was 237 nM and 93.6 nM.
As to `C=CC(=O)Nc1cc(Nc2nccc(-c3cn(C)c4ccccc34)n2)c(OC)cc1N(C)CCN(C)C` + CN1CCN(c2cc(C(=O)Nc3cc4cc(-c5cnn(C)c5)ccc4cn3)ccn2)CC1, the IC50 is more than 300 nM under setting [1]; more than 300 nM under setting [2]; more than 300 nM under setting [3]; less than 0.949 nM under setting [4]; less than 0.949 nM under setting [5]; less than 0.949 nM under setting [6]. In addition, the viability, T/C is 85.9% (second compound 0.0316 µM, first compound 0.000949 µM); 100% (second compound 0.0316 µM, first compound 0.003 µM); 102% (second compound 0.0316 µM, first compound 0.00949 µM); 104% (second compound 0.0316 µM, first compound 0.03 µM); 99.3% (second compound 0.0316 µM, first compound 0.0949 µM); 91.8% (second compound 0.0316 µM, first compound 0.3 µM). Moreover, the viability, T/C (second compound 0.1 µM, first compound 0.000949 µM) was 98%; the viability, T/C (second compound 0.1 µM, first compound 0.003 µM) was 102%; the viability, T/C (second compound 0.1 µM, first compound 0.00949 µM) is 93.7%; the viability, T/C (second compound 0.1 µM, first compound 0.03 µM) is 97.9%; the viability, T/C (second compound 0.1 µM, first compound 0.0949 µM) was 94.5%; the viability, T/C (second compound 0.1 µM, first compound 0.3 µM) was 83%. In addition, the viability, T/C is, setting by setting: (second compound 0.316 µM, first compound 0.000949 µM) 90.3%; (second compound 0.316 µM, first compound 0.003 µM) 92.2%; (second compound 0.316 µM, first compound 0.00949 µM) 89.7%; (second compound 0.316 µM, first compound 0.03 µM) 89.4%; (second compound 0.316 µM, first compound 0.0949 µM) 93.8%; (second compound 0.316 µM, first compound 0.3 µM) 76.6%. Also, the viability, T/C was 4.73% (second compound 1 µM, first compound 0.000949 µM); 9.3% (second compound 1 µM, first compound 0.003 µM); 0.69% (second compound 1 µM, first compound 0.00949 µM); 1.14% (second compound 1 µM, first compound 0.03 µM); 0.77% (second compound 1 µM, first compound 0.0949 µM); 0.67% (second compound 1 µM, first compound 0.3 µM). The viability, T/C reads like this: (second compound 3.16 µM, first compound 0.000949 µM) 0.69%; (second compound 3.16 µM, first compound 0.003 µM) 0.65%; (second compound 3.16 µM, first compound 0.00949 µM) 0.63%; (second compound 3.16 µM, first compound 0.03 µM) 0.6%; (second compound 3.16 µM, first compound 0.0949 µM) 0.55%; (second compound 3.16 µM, first compound 0.3 µM) 1.62%. The viability, T/C (second compound 10 µM, first compound 0.000949 µM) was 0.51%; the viability, T/C (second compound 10 µM, first compound 0.003 µM) is 0.59%; the viability, T/C (second compound 10 µM, first compound 0.00949 µM) is 0.58%; the viability, T/C (second compound 10 µM, first compound 0.03 µM) was 0.51%; the viability, T/C (second compound 10 µM, first compound 0.0949 µM) was 0.4%; the viability, T/C (second compound 10 µM, first compound 0.3 µM) was 0.27%.
On to `NC(=O)C(=Cn1cnc(-c2cc(C(F)(F)F)cc(C(F)(F)F)c2)n1)c1cncnc1`, for which the viability, T/C runs as follows: (compound 0.00949 µM) 79.8% and 85.7%; (compound 0.03 µM) 92.3% and 86.1%; (compound 0.0949 µM) 94.4% and 92.1%; (compound 0.3 µM) 70.9% and 61.6%; (compound 0.949 µM) 57.1% and 48%; (compound 3 µM) 19.2% and 7.79%. Where the note is “curve of compound”, the IC50 is 1120 nM and 750 nM.
`CNC(=O)c1ccc(Nc2nc(OC3CCCC3)c3c(-c4ccc5nc(C)oc5c4)c[nH]c3n2)c(OC)c1`: the viability, T/C is 93.9% [middle of 12 runs] (compound 0.0316 µM), 74% [middle of 12 runs] (compound 0.316 µM), 75.3% [middle of 12 runs] (compound 3.16 µM) and 72.6% [middle of 12 runs] (compound 10 µM). Moreover, for the setting “compound alone, run of 08/01/2023”, the IC50 was more than 10000 nM.
Turning to `CCc1c2c(nc3ccc(O)cc13)-c1cc3c(c(=O)n1C2)COC(=O)[C@]3(O)CC`, the viability, T/C was 88.5% and 83.9% (compound 0.00316 µM); 62.1% and 59.6% (compound 0.01 µM); 87.1% and 45.6% (compound 0.0316 µM); 92.3% and 52.8% (compound 0.1 µM); 80.8% and 49.8% (compound 0.316 µM); 42% and 37.8% (compound 1 µM).
